Data on one molecule can be found in publication PMC2009384, “The carcinogenicity of polycyclic hydrocarbon epoxides in newborn mice” (British Journal of Cancer, 1975).

For the data set, the system named is newborn Swiss mice. Kind of data set: Experiment II: carcinogenicity in newborn mice, chrysene, 7-methylbenz(a)anthracene and K region epoxides (s.c. injection, tumour incidence to 70-75 weeks). Conditions: for No. of mice examined at p.m. at termination of experiment (70-75th week) with liver tumours / No. of mice examined at p.m. at termination of experiment (70-75th week) with lung tumours / No. of mice examined at p.m. at termination of experiment (70-75th week) with multiple liver tumours / No. of mice examined at p.m. at termination of experiment (70-75th week) with multiple lung tumours / No. of mice examined at p.m. at termination of experiment (70-75th week) with other tumours / No. of mice examined at p.m. from 50-70th week with liver tumours / No. of mice examined at p.m. from 50-70th week with lung tumours / No. of mice examined at p.m. from 50-70th week with other tumours / No. of survivors at 50 weeks / No. of survivors at 70 weeks: 100 µg per treatment; for No. of mice examined at p.m. at termination of experiment (70-75th week) with liver tumours / No. of mice examined at p.m. at termination of experiment (70-75th week) with lung tumours / No. of mice examined at p.m. at termination of experiment (70-75th week) with multiple liver tumours / No. of mice examined at p.m. at termination of experiment (70-75th week) with multiple lung tumours / No. of mice examined at p.m. at termination of experiment (70-75th week) with other tumours / No. of mice examined at p.m. from 50-70th week with liver tumours / No. of mice examined at p.m. from 50-70th week with lung tumours / No. of mice examined at p.m. from 50-70th week with other tumours: 3 treatments; for No. of survivors at 50 weeks / No. of survivors at 70 weeks: 3 treatments (Days 0, 1 and 2) s.c. in PEG 400. The text has this: Br. J. Cancer (1975) 31, 182 THE CARCINOGENICITY OF POLYCYCLIC HYDROCARBON EPOXIDES IN NEWBORN MICE P. L. GROVER, P. SIMS, B. C. V. MITCHLEY AND F. J. C. ROE From the Chester Beatty Research Institute, Institute of Cancer Research, Royal Cancer Hospital, Fulham Road, London, SW3 6JB Received 9 August 1974. […] THE HYPOTHESIS that the carcino- genicity of polycyclic hydrocarbons is associated with the formation of epoxide metabolites (Grover, Hewer and Sims, 1971, 1972; Keysell et al., 1973) is sup- ported by some experimental evidence but remains unproven. […] The epoxides can also act as alkylating agents (Grover and Sims, 1970) and as mutagens (Ames, Sims and Grover, 1972; Huberman et al., 1971; Cookson, Sims and Grover, 1971; Fahmy and Fahmy, 1973). […] The newborn mouse, which is susceptible to carcinogenic polycyclic hydrocarbons (Roe, Rowson and Salaman, 1961; Roe, Mitchley and Walters, 1963; Walters and Roe, 1964, 1966) can be considered as a convenient source of several types of rapidly dividing cells. Consequently we have tested the K region epoxides derived from phenanthrene, benz(a)anthracene, 7-methylbenz(a)anthracene, dibenz(a,h)- anthracene, chrysene and 3-methylchol- anthrene, together with some of the CARCINOGENICITY OF POLYCYCLIC HYDROCARBON EPOXIDES IN MICE 183 parent hydrocarbons, for carcinogenicity using newborn mice. This paper presents the results that were obtained in these experiments. MATERIALS AND METHODS The polycyclic hydrocarbon epoxides, phenanthrene 9,10-oxide, benz(a)anthracene 5,6-oxide, 7-methylbenz(a)anthracene 5,6- oxide, dibenz(a,h)anthracene 5,6-oxide, chry- sene 5,6-oxide and 3-methylcholanthrene 11,12-oxide were prepared from the parent hydrocarbons (Newman and Blum, 1964; Boyland and Sims, 1965; Sims 1966). Two experiments were undertaken fol- lowing similar protocols. For each experi- ment Swiss mice from a specific pathogen- free colony were time mated so as to produce a large number of litters over the course of 2 or 3 days. […] Test compounds were suspended in poly- ethylene glycol (PEG) 400 and injections of 0-02 ml of the suspension were given by introducing a 25 gauge hypodermic needle through the skin near the root of the tail and threading it subcutaneously to deliver the injected material in the interscapular region. Injections were given to every mouse on the first day or first 3 days of life. The details of treatments and numbers of mice of each sex in each group are shown in Table I (Experiment I) and Table II (Ex- periment II). Surviving mice were weaned when they w ere 21 days old. Thereafter, males and females w ere separated and housed 6 per cage in metal boxes. A mixture of sawdust and wood shavings was used as bedding. The mice were fed on a standard cubed diet (Formulation 86 from C. Holdman and Sons (Plow co Feeds), Byers Lane, South Godstone, Surrey) and water was given ad libitum. Mice were inspected daily, and at weekly intervals they were weighed and palpated for tumours and other lesions. […] The experiment was terminated when surviving mice were between 70 and 75 weeks old. A full routine post- mortem examination, which included disten- sion of the urinary bladder with fixative, was carried out. The number of lesions thought to be neoplasms and the size of the largest such lesion in each organ affected were recorded. All tissues with suspected neoplasms were fixed in Bouin's solution. Haematoxylin and eosin stained 5 µm paraffin wax sections were prepared and examined microscopically. RESULTS The results of the two experiments in terms of tumour incidence are sum- marized in […].

On to `Cc1c2ccccc2cc2c1ccc1ccccc12` [7-Methylbenz(a)anthracene, reference compound], for which the “incidence of lung tumours” value (3 x 100 µg s.c., newborn, 7-methylbenz(a)anthracene pair) was “slightly raised”. Where the note is “females”, the “No. of mice examined at p.m. at termination of experiment (70-75th week) with liver tumours” value is 0, the “No. of mice examined at p.m. at termination of experiment (70-75th week) with lung tumours” value is given as 1, the “No. of mice examined at p.m. at termination of experiment (70-75th week) with multiple liver tumours” value was determined as 0 and the “No. of mice examined at p.m. at termination of experiment (70-75th week) with multiple lung tumours” value was found to be 1. Under “females”, the “No. of mice examined at p.m. at termination of experiment (70-75th week) with other tumours” value is 1, the “No. of mice examined at p.m. from 50-70th week with liver tumours” value was 0, the “No. of mice examined at p.m. from 50-70th week with lung tumours” value was found to be 7 and the “No. of mice examined at p.m. from 50-70th week with other tumours” value worked out at 1. Moreover, under “females”, the “No. of survivors at 50 weeks” value is reported as 21 and the “No. of survivors at 70 weeks” value is recorded as 10. Moreover, for the setting “males”, the “No. of mice examined at p.m. at termination of experiment (70-75th week) with liver tumours” value was determined as 1, the “No. of mice examined at p.m. at termination of experiment (70-75th week) with lung tumours” value stood at 3, the “No. of mice examined at p.m. at termination of experiment (70-75th week) with multiple liver tumours” value is recorded as 1 and the “No. of mice examined at p.m. at termination of experiment (70-75th week) with multiple lung tumours” value was 3. Where the note is “males”, the “No. of mice examined at p.m. at termination of experiment (70-75th week) with other tumours” value amounted to 1, the “No. of mice examined at p.m. from 50-70th week with liver tumours” value came to 11, the “No. of mice examined at p.m. from 50-70th week with lung tumours” value is recorded as 10 and the “No. of mice examined at p.m. from 50-70th week with other tumours” value is reported as 0. Also, under “males”, the “No. of survivors at 50 weeks” value worked out at 23 and the “No. of survivors at 70 weeks” value is listed as 4. The “activity in increasing the incidence of liver tumours in males compared with K region epoxide” value (neonatally injected, 3 x 100 µg) is “more active than its K region epoxide”.
